Reference: US11547697B2, “Heterocyclic compounds and uses thereof” (MILLENNIUM PHARMACEUTICALS, INC., priority 2009, dated 2023)
Where two headings read alike, the source gives them in different places.

Tests used:
Assay type in all cases: biochemical
p110δ/p85α = p110δ/p85α (Homo sapiens (Human), UniProt O00329); test: PI 3-Kinase (human) HTRF assay, p110δ/p85α
p110α/p85α = p110α/p85α (Homo sapiens (Human), UniProt P42336); test: PI 3-Kinase (human) HTRF assay, p110α/p85α
p110β/p85α = p110β/p85α (Homo sapiens (Human), UniProt P42338); test: PI 3-Kinase (human) HTRF assay, p110β/p85α
Chain of p110β/p85α (P42338 whole entry): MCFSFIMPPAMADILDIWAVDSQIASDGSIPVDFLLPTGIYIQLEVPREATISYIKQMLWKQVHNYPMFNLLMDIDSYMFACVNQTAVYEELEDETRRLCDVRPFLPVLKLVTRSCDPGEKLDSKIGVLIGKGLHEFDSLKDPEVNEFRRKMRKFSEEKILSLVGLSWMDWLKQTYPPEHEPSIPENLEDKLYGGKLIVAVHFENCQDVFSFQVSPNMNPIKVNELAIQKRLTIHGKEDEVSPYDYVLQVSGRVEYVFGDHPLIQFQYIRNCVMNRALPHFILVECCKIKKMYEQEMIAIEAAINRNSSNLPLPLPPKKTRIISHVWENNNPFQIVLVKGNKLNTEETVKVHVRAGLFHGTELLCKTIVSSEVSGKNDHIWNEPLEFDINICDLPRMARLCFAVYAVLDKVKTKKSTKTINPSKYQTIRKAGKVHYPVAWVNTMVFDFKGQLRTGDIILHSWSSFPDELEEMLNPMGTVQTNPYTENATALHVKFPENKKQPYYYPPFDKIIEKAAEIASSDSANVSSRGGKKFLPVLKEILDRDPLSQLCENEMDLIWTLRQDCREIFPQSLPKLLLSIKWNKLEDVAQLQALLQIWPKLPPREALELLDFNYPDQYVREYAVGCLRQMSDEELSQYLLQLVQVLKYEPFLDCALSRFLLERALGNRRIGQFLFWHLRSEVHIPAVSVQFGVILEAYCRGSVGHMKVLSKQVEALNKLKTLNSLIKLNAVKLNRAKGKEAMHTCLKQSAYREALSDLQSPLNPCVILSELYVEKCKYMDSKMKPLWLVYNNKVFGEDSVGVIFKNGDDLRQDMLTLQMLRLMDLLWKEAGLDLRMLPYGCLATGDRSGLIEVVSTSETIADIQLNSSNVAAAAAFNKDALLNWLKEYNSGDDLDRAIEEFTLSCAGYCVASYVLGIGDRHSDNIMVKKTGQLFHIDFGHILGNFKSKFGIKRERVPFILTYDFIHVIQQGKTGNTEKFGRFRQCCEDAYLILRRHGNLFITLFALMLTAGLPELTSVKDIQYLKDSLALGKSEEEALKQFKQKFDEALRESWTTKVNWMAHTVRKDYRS
Chain of p110β/p85α (P27986 whole entry partner): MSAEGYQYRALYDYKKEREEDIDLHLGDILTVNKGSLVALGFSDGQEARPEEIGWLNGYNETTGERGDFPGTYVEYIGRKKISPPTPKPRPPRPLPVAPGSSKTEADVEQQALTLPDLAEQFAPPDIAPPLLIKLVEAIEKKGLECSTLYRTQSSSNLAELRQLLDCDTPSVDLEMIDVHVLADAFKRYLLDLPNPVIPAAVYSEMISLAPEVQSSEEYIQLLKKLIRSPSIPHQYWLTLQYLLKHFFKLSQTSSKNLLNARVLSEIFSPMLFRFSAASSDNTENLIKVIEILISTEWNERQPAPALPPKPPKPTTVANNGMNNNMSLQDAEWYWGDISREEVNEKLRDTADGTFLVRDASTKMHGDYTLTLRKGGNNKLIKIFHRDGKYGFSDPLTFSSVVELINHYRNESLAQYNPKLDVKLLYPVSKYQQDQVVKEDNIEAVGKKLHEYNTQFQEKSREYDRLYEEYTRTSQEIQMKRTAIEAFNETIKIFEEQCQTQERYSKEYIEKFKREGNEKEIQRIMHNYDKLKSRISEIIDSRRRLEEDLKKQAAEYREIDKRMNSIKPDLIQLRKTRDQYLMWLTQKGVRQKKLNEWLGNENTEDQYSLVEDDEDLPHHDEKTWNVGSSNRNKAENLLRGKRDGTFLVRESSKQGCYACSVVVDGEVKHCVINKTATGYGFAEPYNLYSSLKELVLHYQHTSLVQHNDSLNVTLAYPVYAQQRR

p110γ = p110γ (Homo sapiens (Human), UniProt P48736); test: PI 3-Kinase (human) HTRF assay, p110γ
Chain of p110γ (P48736 whole entry): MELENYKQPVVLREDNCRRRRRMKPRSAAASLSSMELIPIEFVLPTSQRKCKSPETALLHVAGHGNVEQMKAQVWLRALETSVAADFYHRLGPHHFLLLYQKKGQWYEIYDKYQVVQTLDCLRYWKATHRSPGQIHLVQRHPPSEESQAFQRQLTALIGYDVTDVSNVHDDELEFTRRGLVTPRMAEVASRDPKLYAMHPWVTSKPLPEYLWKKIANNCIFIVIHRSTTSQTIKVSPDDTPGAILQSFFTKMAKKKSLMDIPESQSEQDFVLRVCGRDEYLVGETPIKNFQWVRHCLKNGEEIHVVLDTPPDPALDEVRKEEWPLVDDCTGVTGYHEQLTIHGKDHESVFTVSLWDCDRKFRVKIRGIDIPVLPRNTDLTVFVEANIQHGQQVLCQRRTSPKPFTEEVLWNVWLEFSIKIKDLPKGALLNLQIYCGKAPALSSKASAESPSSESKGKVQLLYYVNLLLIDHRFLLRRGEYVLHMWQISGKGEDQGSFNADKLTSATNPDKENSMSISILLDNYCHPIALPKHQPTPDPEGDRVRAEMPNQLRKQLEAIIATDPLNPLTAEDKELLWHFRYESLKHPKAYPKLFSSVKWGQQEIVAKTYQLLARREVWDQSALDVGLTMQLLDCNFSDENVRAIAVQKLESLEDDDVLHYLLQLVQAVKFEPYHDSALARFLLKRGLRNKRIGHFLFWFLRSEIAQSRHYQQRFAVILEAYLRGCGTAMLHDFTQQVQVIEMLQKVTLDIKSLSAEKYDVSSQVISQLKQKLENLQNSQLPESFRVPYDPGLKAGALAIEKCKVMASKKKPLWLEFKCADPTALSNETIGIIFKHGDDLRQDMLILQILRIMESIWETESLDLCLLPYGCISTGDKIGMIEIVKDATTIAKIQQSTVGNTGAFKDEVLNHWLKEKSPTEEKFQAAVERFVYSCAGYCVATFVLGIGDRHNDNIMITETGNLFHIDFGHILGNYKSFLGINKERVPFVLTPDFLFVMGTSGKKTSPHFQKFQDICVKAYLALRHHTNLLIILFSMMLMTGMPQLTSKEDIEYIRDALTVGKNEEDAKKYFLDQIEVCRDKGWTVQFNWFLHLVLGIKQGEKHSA

[1] = in vitro, read-out: PI3K δ IC50
[2] = in vitro, read-out: PI3K α IC50
[3] = in vitro, read-out: PI3K β IC50
[4] = in vitro, read-out: PI3K γ IC50

Chain of p110α/p85α (P42336 whole entry): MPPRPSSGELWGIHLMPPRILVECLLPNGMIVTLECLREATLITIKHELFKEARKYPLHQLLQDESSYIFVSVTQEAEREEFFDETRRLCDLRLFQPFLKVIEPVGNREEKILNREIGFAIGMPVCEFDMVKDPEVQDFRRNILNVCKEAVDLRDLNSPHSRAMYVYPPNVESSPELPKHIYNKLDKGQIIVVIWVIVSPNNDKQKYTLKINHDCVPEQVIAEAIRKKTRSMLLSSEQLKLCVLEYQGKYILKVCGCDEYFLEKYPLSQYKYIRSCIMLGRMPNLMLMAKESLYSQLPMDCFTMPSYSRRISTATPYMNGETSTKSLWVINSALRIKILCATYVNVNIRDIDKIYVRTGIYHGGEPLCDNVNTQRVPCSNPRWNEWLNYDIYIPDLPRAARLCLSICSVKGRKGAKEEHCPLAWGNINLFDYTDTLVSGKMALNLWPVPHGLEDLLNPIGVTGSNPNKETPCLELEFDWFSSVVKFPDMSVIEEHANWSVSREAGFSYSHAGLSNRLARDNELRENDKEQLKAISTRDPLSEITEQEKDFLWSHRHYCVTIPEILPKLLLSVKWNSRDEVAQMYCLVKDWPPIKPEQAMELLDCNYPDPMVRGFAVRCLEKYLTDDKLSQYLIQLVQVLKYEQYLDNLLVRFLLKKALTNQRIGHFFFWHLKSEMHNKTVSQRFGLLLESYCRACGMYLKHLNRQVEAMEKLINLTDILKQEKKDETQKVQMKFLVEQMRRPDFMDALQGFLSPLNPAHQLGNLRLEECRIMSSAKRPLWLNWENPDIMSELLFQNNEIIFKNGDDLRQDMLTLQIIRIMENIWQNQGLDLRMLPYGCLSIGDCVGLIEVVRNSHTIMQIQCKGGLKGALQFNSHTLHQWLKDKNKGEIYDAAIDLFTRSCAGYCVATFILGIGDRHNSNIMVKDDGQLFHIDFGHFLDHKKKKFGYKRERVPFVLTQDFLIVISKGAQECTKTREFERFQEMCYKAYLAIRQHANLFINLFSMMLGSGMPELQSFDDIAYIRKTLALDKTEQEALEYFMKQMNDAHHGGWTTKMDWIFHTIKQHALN
Chain of p110α/p85α (P27986 whole entry partner): as the sequence (P27986 whole entry partner) above
Chain of p110δ/p85α (O00329 whole entry): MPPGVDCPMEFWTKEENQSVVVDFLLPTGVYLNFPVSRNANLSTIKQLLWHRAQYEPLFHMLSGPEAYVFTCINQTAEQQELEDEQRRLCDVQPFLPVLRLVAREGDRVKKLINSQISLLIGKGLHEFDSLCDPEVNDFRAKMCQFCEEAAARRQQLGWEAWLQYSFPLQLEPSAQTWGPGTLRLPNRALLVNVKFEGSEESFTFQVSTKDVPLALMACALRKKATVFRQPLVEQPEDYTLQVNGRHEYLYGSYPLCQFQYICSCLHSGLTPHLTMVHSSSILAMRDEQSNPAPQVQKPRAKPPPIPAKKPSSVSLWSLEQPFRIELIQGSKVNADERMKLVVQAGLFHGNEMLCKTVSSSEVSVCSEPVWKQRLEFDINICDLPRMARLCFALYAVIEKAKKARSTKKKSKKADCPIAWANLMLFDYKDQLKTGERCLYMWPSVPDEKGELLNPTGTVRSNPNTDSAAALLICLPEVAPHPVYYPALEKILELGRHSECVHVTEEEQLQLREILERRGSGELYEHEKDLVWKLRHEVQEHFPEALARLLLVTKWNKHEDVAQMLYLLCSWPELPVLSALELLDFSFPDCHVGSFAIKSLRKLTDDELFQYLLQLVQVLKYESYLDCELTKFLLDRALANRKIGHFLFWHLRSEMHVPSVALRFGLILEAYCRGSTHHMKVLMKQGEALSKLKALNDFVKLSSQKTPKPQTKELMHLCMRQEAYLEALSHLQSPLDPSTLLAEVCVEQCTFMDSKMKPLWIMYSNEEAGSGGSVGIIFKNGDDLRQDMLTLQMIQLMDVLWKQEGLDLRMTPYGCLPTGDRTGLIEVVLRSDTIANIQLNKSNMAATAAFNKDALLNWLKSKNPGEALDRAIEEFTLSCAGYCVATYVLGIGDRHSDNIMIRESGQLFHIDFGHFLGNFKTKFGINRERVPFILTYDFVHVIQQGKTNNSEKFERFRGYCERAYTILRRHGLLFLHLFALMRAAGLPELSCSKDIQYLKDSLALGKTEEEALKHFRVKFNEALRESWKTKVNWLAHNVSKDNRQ
Chain of p110δ/p85α (P27986 whole entry partner): as the sequence (P27986 whole entry partner) above

Row | SMILES | IC50 (p110α/p85α; read-out: PI3K α In Vitro IC50) [nM] | IC50 (p110γ; read-out: PI3K γ In Vitro IC50) [nM] | IC50 (p110α/p85α; read-out: PI3K α IC50) [nM] | IC50 (p110γ; read-out: PI3K γ IC50) [nM] | also measured
1 | CC1(C)CN(c2cnc3ccc(-c4ccc5oc(N)nc5c4)cc3n2)CCN1 [compound 336] |  |  |  |  | IC50 (p110δ/p85α; [1]): < 10000 nM; IC50 (p110α/p85α; [2]): < 1000 nM; IC50 (p110β/p85α; [3]): < 1000 nM
2 | Nc1nc2cc(-c3ccc4nccc(-c5cccnc5)c4c3)ccc2o1 [compound 31] |  |  | < 100 | < 100 | IC50 (p110δ/p85α; read-out: PI3K δ IC50): < 100 nM
3 | COc1ncc(-c2ccc3ncc(C(=O)N4CCOCC4)n3c2)cc1NS(=O)(=O)c1ccccc1 [compound 420] | < 100 | < 1000 |  |  | IC50 (p110δ/p85α; read-out: PI3K δ In Vitro IC50): < 1000 nM
4 | CC(=O)Nc1nc2cc(-c3cc(F)c4oc(N)nc4c3)ccc2s1 [compound 435] | < 10000 | < 100 |  |  | IC50 (p110β/p85α; read-out: PI3K β In Vitro IC50): < 10000 nM
5 | COCCn1cnc2ccc(-c3ccc4oc(N)nc4c3)cc2c1=O [compound 272] |  |  |  |  | IC50 (p110α/p85α; [2]): < 1000 nM; IC50 (p110γ; [4]): < 10000 nM; IC50 (p110β/p85α; [3]): < 10000 nM
6 | Nc1nc2cc(-c3ccc4ncc(-c5ccccn5)nc4c3)ccc2o1 [compound 195] |  |  | < 1000 | < 100 | IC50 (p110β/p85α; read-out: PI3K β IC50): < 10000 nM
7 | O=C(c1cnc2ccc(-c3cccc(NS(=O)(=O)c4ccc(F)cc4F)c3)cn12)N1CCOCC1 [compound 454] | < 10000 | < 10000 |  |  | IC50 (p110δ/p85α; read-out: PI3K δ In Vitro IC50): < 10000 nM
8 | Nc1nc2ccc(-c3ccc4nc(N)sc4c3)cc2o1 [compound 243] |  |  |  |  | IC50 (p110α/p85α; [2]): < 1000 nM; IC50 (p110γ; [4]): < 100 nM; IC50 (p110β/p85α; [3]): < 100 nM
9 | CC(=O)Nc1nc2ccc(-c3ccc4nc(N)oc4c3)cc2s1 [compound 242] |  |  |  |  | IC50 (p110α/p85α; [2]): < 100 nM; IC50 (p110γ; [4]): < 100 nM; IC50 (p110β/p85α; [3]): < 100 nM
10 | O=C(c1cnc2ccc(-c3cncc(NS(=O)(=O)c4ccc(F)cc4F)c3)cn12)N1CCOCC1 [compound 425] | < 100 | < 100 |  |  | IC50 (p110δ/p85α; read-out: PI3K δ In Vitro IC50): < 1000 nM
11 | C[C@H]1CN(C2CN(c3cnc4ccc(-c5ccc6oc(N)nc6c5)cc4n3)C2)CCN1 [compound 350] |  |  |  |  | IC50 (p110δ/p85α; [1]): < 10000 nM; IC50 (p110α/p85α; [2]): < 100 nM; IC50 (p110β/p85α; [3]): < 10000 nM
12 | CN1CCN(C(=O)c2cnn3ccc(-c4ccc5oc(N)nc5c4)cc23)CC1 [compound 380] |  |  |  |  | IC50 (p110α/p85α; [2]): < 1000 nM; IC50 (p110γ; [4]): < 10000 nM; IC50 (p110β/p85α; [3]): < 10000 nM
13 | CN1CCN(c2cnc3ccc(-c4ccc5nc(N)oc5c4)cc3n2)CC1 [compound 118] |  |  | < 1000 | < 10000 | IC50 (p110β/p85α; read-out: PI3K β IC50): < 100 nM
14 | Nc1nc2cc(-c3ccc4sc(N)nc4c3)cc(F)c2o1 [compound 437] | < 10000 | < 1000 |  |  | IC50 (p110β/p85α; read-out: PI3K β In Vitro IC50): < 1000 nM

The next lines start with results.

Row | IC50 (p110α/p85α; read-out: PI3K α In Vitro IC50) [nM] | IC50 (p110γ; read-out: PI3K γ In Vitro IC50) [nM] | IC50 (p110α/p85α; read-out: PI3K α IC50) [nM] | IC50 (p110γ; read-out: PI3K γ IC50) [nM] | SMILES | also measured
15 | < 100 | < 1000 |  |  | Nc1nc2cc(-c3ccc4ncc(C(=O)N5CC(N6CCC(F)(F)C6)C5)n4c3)ccc2o1 [compound 502] | IC50 (p110δ/p85α; read-out: PI3K δ In Vitro IC50): < 10000 nM
16 | < 100 | < 1000 |  |  | Nc1nc2cc(-c3ccc4ncc(C(=O)N5CC[C@@H](n6cccn6)C5)n4c3)ccc2o1 [compound 477] | IC50 (p110δ/p85α; read-out: PI3K δ In Vitro IC50): < 10000 nM
17 | < 100 | < 1000 |  |  | C[C@H]1CCCN1C(=O)c1cnc2ccc(-c3ccc4oc(N)nc4c3)cn12 [compound 482] | IC50 (p110δ/p85α; read-out: PI3K δ In Vitro IC50): < 10000 nM
18 |  |  | < 100 | < 100 | CN1CCC(Oc2ncnc3ccc(-c4ccc5oc(N)nc5c4)cc23)CC1 [compound 34] | IC50 (p110δ/p85α; read-out: PI3K δ IC50): < 1000 nM
19 | < 1000 | < 100 |  |  | Nc1nc2cc(-c3ccc4ncc(C(=O)N5CC6CCC(C5)O6)n4c3)ccc2o1 [compound 504] | IC50 (p110β/p85α; read-out: PI3K β In Vitro IC50): < 10000 nM
20 | < 100 | < 100 |  |  | Nc1nc2cc(-c3ccc4ncc(C(=O)N5CC[C@@H](F)C5)n4c3)ccc2o1 [compound 475] | IC50 (p110δ/p85α; read-out: PI3K δ In Vitro IC50): < 10000 nM
21 |  |  | < 1000 | < 100 | Nc1nc2cc(-c3ccc4nccc(CCN5CCOCC5)c4c3)ccc2o1 [compound 27] | IC50 (p110δ/p85α; read-out: PI3K δ IC50): < 10000 nM
22 | < 1000 | < 10000 |  |  | Nc1nc2c(-c3ccc4ncc(C(=O)N5CCOCC5)n4c3)cccc2o1 [compound 496] | IC50 (p110β/p85α; read-out: PI3K β In Vitro IC50): < 10000 nM
23 |  |  | < 1000 | < 1000 | Nc1nc2ccc(-c3ccc4ncc(C(=O)N5CCOCC5)n4c3)cc2s1 [compound 125] | IC50 (p110δ/p85α; read-out: PI3K δ IC50): < 10000 nM
24 |  |  | < 100 | < 100 | CN1CCN(c2cc(-c3cnc4ccc(-c5ccc6oc(N)nc6c5)cn34)ccn2)CC1 [compound 43] | IC50 (p110δ/p85α; read-out: PI3K δ IC50): < 100 nM
25 |  |  | < 100 | < 100 | Nc1nc2cc(-c3ccc4ncc(-c5cccnc5)n4c3)ccc2o1 [compound 37] | IC50 (p110δ/p85α; read-out: PI3K δ IC50): < 100 nM
26 |  |  | < 1000 | < 10000 | CN1CCCN(c2cnc3ccc(-c4ccc5oc(N)nc5c4)cc3n2)CC1 [compound 136] | IC50 (p110β/p85α; read-out: PI3K β IC50): < 1000 nM
27 | < 10000 | < 10000 |  |  | CC(=O)Nc1n[nH]c2cc(-c3ccc4oc(N)nc4c3)ccc12 [compound 430] | IC50 (p110β/p85α; read-out: PI3K β In Vitro IC50): < 10000 nM
28 |  |  | < 100 | < 100 | Nc1nc2cc(-c3ccc4ncnc(N5CCC(O)CC5)c4c3)ccc2o1 [compound 29] | IC50 (p110δ/p85α; read-out: PI3K δ IC50): < 100 nM
